Assay results as given in ChEMBL document CHEMBL1201862, “PubChem BioAssay data set” (2004).
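Method: 48-hour compound exposure of cells in 96-well plates, five concentrations, linear interpolation of endpoints. Here, GI50 denotes the concentration required for 50% inhibition of growth.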 The source made the active and inactive calls. No stated cut-off is given here; in the data, active = GI50 up to about 1.1 µM and inactive = higher.

Experiments:
Assay in all cases: NCI-60 cell line screen, 48 h
[1] = test system: A549
[2] = test system: ACHN
[3] = test system: CCRF-CEM
[4] = test system: HL-60
[5] = test system: K562
[6] = test system: KM12
[7] = test system: LOX IMVI
[8] = test system: M14
[9] = test system: OVCAR-4
[10] = test system: OVCAR-5
[11] = test system: RPMI-8226
[12] = test system: SF-539
[13] = test system: SK-MEL-5
[14] = test system: SK-OV-3
[15] = test system: SNB-75
[16] = test system: SR
[17] = test system: U-251
[18] = test system: DU-145
[19] = test system: PC-3
[20] = test system: BT-549

Compound	GI50 [1]	GI50 [2]	GI50 [3]	GI50 [4]	GI50 [5]	GI50 [6]	GI50 [7]	GI50 [8]	GI50 [9]	GI50 [10]	GI50 [11]	GI50 [12]	GI50 [13]	GI50 [14]	GI50 [15]	GI50 [16]	GI50 [17]	GI50 [18]	GI50 [19]	GI50 [20]
CC1(n2nc(-c3ccccc3)n(-c3ccccc3)c2=O)CSC1	> 100 µM (inactive)	> 100 µM (inactive)	> 100 µM (inactive)	> 100 µM (inactive)	> 100 µM (inactive)	> 100 µM (inactive)	> 100 µM (inactive)	> 100 µM (inactive)	> 100 µM (inactive)	> 100 µM (inactive)	> 100 µM (inactive)	> 100 µM (inactive)	> 100 µM (inactive)	> 100 µM (inactive)	> 100 µM (inactive)	> 100 µM (inactive)	> 100 µM (inactive)			
CN1N=C(c2ccncc2)OC1c1ccc(C(F)(F)F)cc1 (stereo not drawn)	> 100 µM (inactive)	> 100 µM (inactive)	> 100 µM (inactive)	> 100 µM (inactive)	> 100 µM (inactive)	> 100 µM (inactive)	> 100 µM (inactive)	> 100 µM (inactive)	> 100 µM (inactive)	> 100 µM (inactive)	> 100 µM (inactive)	> 100 µM (inactive)	> 100 µM (inactive)	> 100 µM (inactive)	0.491 µM (active)		91 µM (inactive)	> 100 µM (inactive)	> 100 µM (inactive)	
OC(c1nc2ccccc2s1)(C(F)(F)F)C(F)(F)F	> 100 µM (inactive)	> 100 µM (inactive)	> 100 µM (inactive)	> 100 µM (inactive)	> 100 µM (inactive)	> 100 µM (inactive)	> 100 µM (inactive)	> 100 µM (inactive)	> 100 µM (inactive)	> 100 µM (inactive)	> 100 µM (inactive)	> 100 µM (inactive)	> 100 µM (inactive)	> 100 µM (inactive)	> 100 µM (inactive)		> 100 µM (inactive)	> 100 µM (inactive)	> 100 µM (inactive)	
CS(=O)(=O)c1nc(-c2cc3c(c(S(C)(=O)=O)n2)CCC3)cc2c1CCCCC2	> 100 µM (inactive)	45 µM (inactive)	> 100 µM (inactive)	> 100 µM (inactive)	> 100 µM (inactive)	> 100 µM (inactive)	> 100 µM (inactive)	> 100 µM (inactive)	> 100 µM (inactive)	> 100 µM (inactive)	> 100 µM (inactive)		> 100 µM (inactive)	11.9 µM (inactive)	6.37 µM (inactive)		41.9 µM (inactive)	> 100 µM (inactive)	> 100 µM (inactive)	20.5 µM (inactive)
CCN(CC)c1ccc(C2SCC(=O)N2c2ccc(NC(=O)c3ccc(N4C(=O)CSC4c4ccc(N(CC)CC)cc4)cc3)cc2)cc1 (stereo not drawn)	> 100 µM (inactive)	> 100 µM (inactive)	35.5 µM (inactive)		47.6 µM (inactive)	96.8 µM (inactive)	67 µM (inactive)	> 100 µM (inactive)	70.8 µM (inactive)	> 100 µM (inactive)		> 100 µM (inactive)	> 100 µM (inactive)	> 100 µM (inactive)	> 100 µM (inactive)		> 100 µM (inactive)	> 100 µM (inactive)	> 100 µM (inactive)	> 100 µM (inactive)
CCOC(=O)c1c(-c2ccccc2)c(-c2ccccc2)cn1C	> 10 µM (inactive)	> 10 µM (inactive)	> 10 µM (inactive)	> 10 µM (inactive)	> 10 µM (inactive)	> 10 µM (inactive)		> 10 µM (inactive)	> 10 µM (inactive)	> 10 µM (inactive)		> 10 µM (inactive)		> 10 µM (inactive)	> 10 µM (inactive)	3.51 µM (inactive)	> 10 µM (inactive)	8.95 µM (inactive)		> 10 µM (inactive)
CCOC(OC1=C(C#N)CCCC1)C(CC)[Se]c1ccccc1[N+](=O)[O-] (stereo not drawn)	57.5 µM (inactive)	29.1 µM (inactive)	20.6 µM (inactive)	17.1 µM (inactive)	33.6 µM (inactive)	21.1 µM (inactive)	16 µM (inactive)	17.9 µM (inactive)	17.9 µM (inactive)	31.4 µM (inactive)	19.5 µM (inactive)	20 µM (inactive)	15.1 µM (inactive)	63.8 µM (inactive)	21.9 µM (inactive)	16.7 µM (inactive)	16.6 µM (inactive)			
COc1ccc(/C(Cl)=C(\CN(C)C)c2ccc(OC)c(OC)c2)cc1OC.[B]	> 100 µM (inactive)	> 100 µM (inactive)	> 100 µM (inactive)	> 100 µM (inactive)	> 100 µM (inactive)	> 100 µM (inactive)	> 100 µM (inactive)	> 100 µM (inactive)	1.19 µM (inactive)	> 100 µM (inactive)	> 100 µM (inactive)	4.72 µM (inactive)	> 100 µM (inactive)	14.2 µM (inactive)	2.5 µM (inactive)	> 100 µM (inactive)	8.61 µM (inactive)			
